Data: patent US7465848B2, “Zebrafish assay” (priority 2002, dated 2008)

How the values were obtained:
zebrafish KCNH2 = assay: Zebrafish KCNH2 knock-down with antisense morpholino, heart rate; format: in vivo, Danio rerio; settings: about 5 nL injected at the single cell stage
Description: Approximately 5 nL of the morpholino antisense oligonucleotide diluted in Danieau's solution at the concentrations shown were injected into the zebrafish embryo at the single cell stage. The zebrafish KCNH2 morpholino was directed against the splice donor site of the sixth exon of the zebrafish KCNH2 ortholog (5′-[…]-3′; SEQ ID NO:2).

zebrafish = settings: for effect on zebrafish heart rate (bradycardia) in the initial screen: compound added to medium at 48 hpf, 1, 10, 100 mcg/ml, highest non-lethal concentration, ventricular rate
Description: TubingenAB zebrafish embryos were reared in E3 Media (5 mM NaCl, 0.17 mM KCl, 0.33 mM MgCl2, 0.33 mM CaCl2). At 24 hours post fertilization (hpf) the embryos were distributed into 96 well plates, 3-5 embryos per well with […] of E3 supplemented with phenylthiourea at 0.03 g/l to inhibit pigmentation.
DMSO alone was used as a control. HR measurement: 15 second video recordings were obtained from each well using a Nikon TE200 microscope fitted with a computer controlled stage, and a Hamamatsu ORCA-ER camera. One hundred twenty-eight frames with an exposure time of 90 ms were recorded for each video. Digital movies were taken for each well, one from each quadrant. These video clips were stored digitally.
Offline analysis was performed with commercially available imaging software (Metamorph Software, Universal Imaging). The average pixel density was measured for a region of interest over the heart, and these densities were plotted against time. […] The frequency spectrum was plotted and the peak was reported in a spreadsheet. Manual review of both time domain and frequency domain data as well as the peak frequency was performed to ensure the validity of the data. Fast-Fourier Transform was performed to determine HR. […] Each compound was tested at 1, 10, and 100 mcg/ml and the highest, non-lethal concentration chosen for HR effect. A two-tailed Student's t-test was performed to determine statistical significance.

Compound: 5′-CCGTCGTACAGGCATGTTGTCCTA-3′ (all phosphorodiamidate morpholino (PMO)) [antisense morpholino]
- effect of KCNH2 antisense morpholino on zebrafish heart rate (zebrafish KCNH2): elicited bradycardia in a dose-dependent manner
- effect of KCNH2 antisense morpholino on zebrafish heart rate (zebrafish KCNH2; listed as antisense morpholino oligonucleotides directed against zebrafish KCNH2): dose-dependent effect on HR

Compound: CCN(CC)CCNC(=O)c1ccc(NC(C)=O)cc1 [N-acetyl-procainamide]
- effect on zebrafish heart rate (bradycardia) in the initial screen (zebrafish): failed to cause bradycardia

Compound: CN/C(=N/CCSCc1nc[nH]c1C)NC#N [cimetidine]
- drug-drug interaction on HR, cimetidine and terfenadine (zebrafish; in vivo): interaction of cimetidine and terfenadine

Compound: COc1cc(N)c(Cl)cc1C(=O)NC1CCN(CCCOc2ccc(F)cc2)CC1OC (centres unmarked) [cisapride]
- change of ED50 on HR for cisapride with increasing doses of erythromycin (zebrafish; cisapride in combination with erythromycin (FIG. 2C)): ten-fold decrease

Compound: CC[C@H]1OC(=O)[C@H](C)[C@@H](O[C@H]2C[C@@](C)(OC)[C@@H](O)[C@H](C)O2)[C@H](C)[C@@H](O[C@@H]2O[C@H](C)C[C@H](N(C)C)[C@H]2O)[C@](C)(O)C[C@@H](C)C(=O)[C@H](C)[C@@H](O)[C@]1(C)O [erythromycin]
- absorption into the zebrafish embryo (zebrafish; in vivo): is absorbed

Compound: CC(=O)N1CCN(c2ccc(OCC3COC(Cn4ccnc4)(c4ccc(Cl)cc4Cl)O3)cc2)CC1 (centres unmarked) [ketoconazole]
- drug-drug interaction on HR, ketoconazole and terfenadine (zebrafish; in vivo): faithfully reproduced

Compound: N=C(N)c1ccc(OCCCCCOc2ccc(C(=N)N)cc2)cc1 [pentamadine]
- effect on zebrafish heart rate (bradycardia) in the initial screen (zebrafish): failed to cause bradycardia
